Measured values from ChEMBL document CHEMBL5715954, “Silencing c-Myc translation as a therapeutic strategy through targeting PI3Kδ and CK1ε in hematological malignancies” (Blood, 2017).

Key:
Design in all cases: scale not given: the % may be the effect or the level left
[1] = target: Tyrosine-protein kinase ABL1 (Homo sapiens) (UniProt P00519); assay: Inhibition of human ABL1 assessed as enzyme activity at 1 uM using EAIYAAPFAKKK as substrate preincubated for 20 mins followed by [gamma-33P]-ATP addition and measured after 120 mins by radiometric Hot-SpotSM Kinase assay relative to control
Sequence of Tyrosine-protein kinase ABL1 (Homo sapiens) (P00519 whole entry): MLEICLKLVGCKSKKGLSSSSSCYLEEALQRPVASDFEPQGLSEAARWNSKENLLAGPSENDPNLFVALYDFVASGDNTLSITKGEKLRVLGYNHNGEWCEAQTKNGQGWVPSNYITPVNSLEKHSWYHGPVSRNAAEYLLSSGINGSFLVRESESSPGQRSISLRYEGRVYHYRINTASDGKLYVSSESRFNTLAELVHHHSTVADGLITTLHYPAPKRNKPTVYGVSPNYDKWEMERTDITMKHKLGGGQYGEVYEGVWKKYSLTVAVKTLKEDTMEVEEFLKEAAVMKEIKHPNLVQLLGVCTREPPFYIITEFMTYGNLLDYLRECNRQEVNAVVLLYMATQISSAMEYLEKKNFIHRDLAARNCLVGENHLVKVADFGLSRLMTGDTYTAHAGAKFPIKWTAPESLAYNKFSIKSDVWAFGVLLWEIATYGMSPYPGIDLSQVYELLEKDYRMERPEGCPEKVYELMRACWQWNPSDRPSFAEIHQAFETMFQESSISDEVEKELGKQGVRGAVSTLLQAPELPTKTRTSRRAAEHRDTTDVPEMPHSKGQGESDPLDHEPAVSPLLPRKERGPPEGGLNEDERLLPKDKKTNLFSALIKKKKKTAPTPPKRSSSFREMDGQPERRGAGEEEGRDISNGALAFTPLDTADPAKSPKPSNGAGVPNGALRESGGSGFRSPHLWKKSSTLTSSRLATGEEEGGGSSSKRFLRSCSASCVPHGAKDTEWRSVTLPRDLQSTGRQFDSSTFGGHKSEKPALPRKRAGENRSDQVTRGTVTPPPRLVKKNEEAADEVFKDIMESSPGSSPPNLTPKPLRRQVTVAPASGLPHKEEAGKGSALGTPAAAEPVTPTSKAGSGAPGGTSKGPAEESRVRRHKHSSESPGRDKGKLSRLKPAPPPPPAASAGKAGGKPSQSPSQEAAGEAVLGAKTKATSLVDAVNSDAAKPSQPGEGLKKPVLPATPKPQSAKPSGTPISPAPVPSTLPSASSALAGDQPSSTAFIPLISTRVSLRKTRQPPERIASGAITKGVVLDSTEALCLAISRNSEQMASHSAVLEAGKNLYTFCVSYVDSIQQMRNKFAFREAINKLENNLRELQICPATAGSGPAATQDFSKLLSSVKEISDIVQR

[2] = target: Bone morphogenetic protein receptor type-1A (Homo sapiens) (UniProt P36894); assay: Inhibition of human ALK3 assessed as enzyme activity at 1 uM using casein as substrate preincubated for 20 mins followed by [gamma-33P]-ATP addition and measured after 120 mins by radiometric Hot-SpotSM Kinase assay relative to control
Sequence of Bone morphogenetic protein receptor type-1A (Homo sapiens) (P36894 whole entry): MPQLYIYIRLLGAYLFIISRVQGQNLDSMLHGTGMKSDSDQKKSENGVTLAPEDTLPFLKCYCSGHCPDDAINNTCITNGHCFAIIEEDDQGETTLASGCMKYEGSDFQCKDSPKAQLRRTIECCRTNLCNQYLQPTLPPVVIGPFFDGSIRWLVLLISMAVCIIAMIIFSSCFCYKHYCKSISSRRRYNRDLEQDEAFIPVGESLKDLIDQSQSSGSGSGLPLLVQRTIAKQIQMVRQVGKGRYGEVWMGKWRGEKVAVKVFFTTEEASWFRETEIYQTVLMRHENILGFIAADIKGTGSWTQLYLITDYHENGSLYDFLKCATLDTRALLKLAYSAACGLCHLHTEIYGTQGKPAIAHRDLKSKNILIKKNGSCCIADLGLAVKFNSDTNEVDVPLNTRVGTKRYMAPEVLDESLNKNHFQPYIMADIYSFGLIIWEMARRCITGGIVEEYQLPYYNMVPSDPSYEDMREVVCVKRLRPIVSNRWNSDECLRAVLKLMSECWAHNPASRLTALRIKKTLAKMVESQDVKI

[3] = target: CDK2/Cyclin O (Homo sapiens) (UniProt P24941+P22674); assay: Inhibition of human CDK2/cyclin O assessed as enzyme activity at 1 uM using Histone H1 as substrate preincubated for 20 mins followed by [gamma-33P]-ATP addition and measured after 120 mins by radiometric Hot-SpotSM Kinase assay relative to control; type: protein-complex assay
[4] = target: Tyrosine-protein kinase Fyn (Homo sapiens) (UniProt P06241); assay: Inhibition of human FYN assessed as enzyme activity at 1 uM using poly[Glu:Tyr] (4:1) as substrate preincubated for 20 mins followed by [gamma-33P]-ATP addition and measured after 120 mins by radiometric Hot-SpotSM Kinase assay relative to control
Sequence of Tyrosine-protein kinase Fyn (Homo sapiens) (P06241 2-537 limits assumed): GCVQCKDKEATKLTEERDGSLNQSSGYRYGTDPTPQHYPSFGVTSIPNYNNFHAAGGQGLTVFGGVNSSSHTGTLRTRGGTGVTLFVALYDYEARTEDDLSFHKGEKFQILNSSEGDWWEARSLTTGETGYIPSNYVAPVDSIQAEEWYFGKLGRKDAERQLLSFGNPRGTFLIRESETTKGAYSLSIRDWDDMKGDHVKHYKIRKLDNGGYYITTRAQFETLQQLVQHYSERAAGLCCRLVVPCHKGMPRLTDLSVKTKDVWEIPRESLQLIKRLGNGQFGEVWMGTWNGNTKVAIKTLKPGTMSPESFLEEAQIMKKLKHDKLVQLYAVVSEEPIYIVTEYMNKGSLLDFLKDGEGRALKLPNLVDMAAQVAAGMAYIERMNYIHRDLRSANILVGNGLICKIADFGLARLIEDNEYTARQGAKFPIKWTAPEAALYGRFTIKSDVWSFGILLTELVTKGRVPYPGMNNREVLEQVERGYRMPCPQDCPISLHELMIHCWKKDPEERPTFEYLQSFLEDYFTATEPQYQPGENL

[5] = target: LIM domain kinase 1 (Homo sapiens) (UniProt P53667); assay: Inhibition of human LIMK1 assessed as enzyme activity at 1 uM using cofilin 1 as substrate preincubated for 20 mins followed by [gamma-33P]-ATP addition and measured after 120 mins by radiometric Hot-SpotSM Kinase assay relative to control
Sequence of LIM domain kinase 1 (Homo sapiens) (P53667 whole entry, looked up, the tested form may be a part): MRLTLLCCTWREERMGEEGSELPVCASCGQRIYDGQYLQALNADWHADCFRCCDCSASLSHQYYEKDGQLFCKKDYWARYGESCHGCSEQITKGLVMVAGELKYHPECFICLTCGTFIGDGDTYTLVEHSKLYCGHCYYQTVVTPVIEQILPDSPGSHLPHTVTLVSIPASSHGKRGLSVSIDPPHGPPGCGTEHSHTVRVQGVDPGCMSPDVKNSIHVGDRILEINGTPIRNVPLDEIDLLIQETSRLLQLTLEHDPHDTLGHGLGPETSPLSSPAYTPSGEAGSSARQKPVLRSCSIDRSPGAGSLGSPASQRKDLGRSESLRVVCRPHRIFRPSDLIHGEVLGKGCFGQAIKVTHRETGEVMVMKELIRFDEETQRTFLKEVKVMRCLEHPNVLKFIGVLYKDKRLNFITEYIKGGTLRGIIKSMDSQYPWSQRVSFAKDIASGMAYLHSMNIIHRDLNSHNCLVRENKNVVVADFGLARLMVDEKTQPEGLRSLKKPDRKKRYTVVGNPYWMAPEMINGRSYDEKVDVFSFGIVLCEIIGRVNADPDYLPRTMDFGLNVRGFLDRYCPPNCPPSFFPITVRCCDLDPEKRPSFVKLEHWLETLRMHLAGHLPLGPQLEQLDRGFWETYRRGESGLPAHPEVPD

[6] = target: Protein kinase C beta type (Homo sapiens) (UniProt P05771); assay: Inhibition of human PKCb1 assessed as enzyme activity at 1 uM using ERMRPRKRQGSVRRRV as substrate preincubated for 20 mins followed by [gamma-33P]-ATP addition and measured after 120 mins by radiometric Hot-SpotSM Kinase assay relative to control
Sequence of Protein kinase C beta type (Homo sapiens) (P05771 2-671 limits assumed): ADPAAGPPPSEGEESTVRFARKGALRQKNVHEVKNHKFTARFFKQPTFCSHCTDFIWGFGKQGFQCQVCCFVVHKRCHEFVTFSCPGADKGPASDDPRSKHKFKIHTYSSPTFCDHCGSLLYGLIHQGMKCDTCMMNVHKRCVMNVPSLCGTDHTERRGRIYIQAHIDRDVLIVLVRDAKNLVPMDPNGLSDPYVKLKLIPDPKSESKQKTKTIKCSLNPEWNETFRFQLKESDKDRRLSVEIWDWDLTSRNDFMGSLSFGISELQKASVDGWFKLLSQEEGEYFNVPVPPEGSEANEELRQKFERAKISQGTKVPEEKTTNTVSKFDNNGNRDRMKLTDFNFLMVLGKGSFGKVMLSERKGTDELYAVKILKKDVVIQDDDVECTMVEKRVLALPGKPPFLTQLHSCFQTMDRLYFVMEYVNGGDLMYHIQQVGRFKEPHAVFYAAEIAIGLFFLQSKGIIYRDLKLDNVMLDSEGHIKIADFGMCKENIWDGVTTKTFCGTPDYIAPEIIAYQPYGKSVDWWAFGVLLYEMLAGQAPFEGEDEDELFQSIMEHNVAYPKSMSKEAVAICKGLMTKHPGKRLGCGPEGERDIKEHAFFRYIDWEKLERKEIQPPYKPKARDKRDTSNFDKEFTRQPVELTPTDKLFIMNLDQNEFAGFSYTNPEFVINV

[7] = target: T1, Protein kinase C iota type (Homo sapiens) (UniProt P41743); assay: Inhibition of human PKCiota assessed as enzyme activity at 1 uM using ERMRPRKRQGSVRRRV as substrate preincubated for 20 mins followed by [gamma-33P]-ATP addition and measured after 120 mins by radiometric Hot-SpotSM Kinase assay relative to control
T1 sequence (whole entry): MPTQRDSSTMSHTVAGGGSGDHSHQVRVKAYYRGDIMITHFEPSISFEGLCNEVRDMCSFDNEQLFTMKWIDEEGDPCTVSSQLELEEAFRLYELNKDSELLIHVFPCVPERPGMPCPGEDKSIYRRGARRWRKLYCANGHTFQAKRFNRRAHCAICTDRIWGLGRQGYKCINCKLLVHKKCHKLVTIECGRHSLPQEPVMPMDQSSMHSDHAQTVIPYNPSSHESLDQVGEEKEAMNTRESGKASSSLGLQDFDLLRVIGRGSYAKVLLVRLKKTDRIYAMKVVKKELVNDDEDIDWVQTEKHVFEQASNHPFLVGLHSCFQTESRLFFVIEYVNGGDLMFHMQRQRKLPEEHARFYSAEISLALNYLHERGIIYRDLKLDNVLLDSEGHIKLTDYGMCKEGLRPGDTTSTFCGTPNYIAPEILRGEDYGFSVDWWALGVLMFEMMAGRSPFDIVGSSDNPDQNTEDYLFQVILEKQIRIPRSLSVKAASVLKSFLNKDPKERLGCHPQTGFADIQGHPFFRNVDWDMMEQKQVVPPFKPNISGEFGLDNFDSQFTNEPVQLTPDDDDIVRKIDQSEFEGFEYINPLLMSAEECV

[8] = target: Serine/threonine-protein kinase 32B (Homo sapiens) (UniProt Q9NY57); assay: Inhibition of human STK32B assessed as enzyme activity at 1 uM using myelin basic protein as substrate preincubated for 20 mins followed by [gamma-33P]-ATP addition and measured after 120 mins by radiometric Hot-SpotSM Kinase assay relative to control
Sequence of Serine/threonine-protein kinase 32B (Homo sapiens) (Q9NY57 whole entry): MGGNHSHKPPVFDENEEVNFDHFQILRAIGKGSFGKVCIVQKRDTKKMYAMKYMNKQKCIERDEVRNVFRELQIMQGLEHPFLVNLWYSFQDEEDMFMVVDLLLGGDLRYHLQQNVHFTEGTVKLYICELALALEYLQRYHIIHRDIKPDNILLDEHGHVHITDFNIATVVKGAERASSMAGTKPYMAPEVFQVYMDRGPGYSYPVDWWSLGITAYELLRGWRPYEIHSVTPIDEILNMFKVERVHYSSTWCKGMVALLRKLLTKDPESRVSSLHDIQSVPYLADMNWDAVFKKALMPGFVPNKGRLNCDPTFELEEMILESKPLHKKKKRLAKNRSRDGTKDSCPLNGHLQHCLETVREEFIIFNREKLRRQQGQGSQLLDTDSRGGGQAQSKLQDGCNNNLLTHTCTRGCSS

[9] = target: Death-associated protein kinase 3 (Homo sapiens) (UniProt O43293); assay: Inhibition of human ZIPK assessed as enzyme activity at 1 uM using KKLNRTLSFAEPG as substrate preincubated for 20 mins followed by [gamma-33P]-ATP addition and measured after 120 mins by radiometric Hot-SpotSM Kinase assay relative to control
Sequence of Death-associated protein kinase 3 (Homo sapiens) (O43293 whole entry, looked up): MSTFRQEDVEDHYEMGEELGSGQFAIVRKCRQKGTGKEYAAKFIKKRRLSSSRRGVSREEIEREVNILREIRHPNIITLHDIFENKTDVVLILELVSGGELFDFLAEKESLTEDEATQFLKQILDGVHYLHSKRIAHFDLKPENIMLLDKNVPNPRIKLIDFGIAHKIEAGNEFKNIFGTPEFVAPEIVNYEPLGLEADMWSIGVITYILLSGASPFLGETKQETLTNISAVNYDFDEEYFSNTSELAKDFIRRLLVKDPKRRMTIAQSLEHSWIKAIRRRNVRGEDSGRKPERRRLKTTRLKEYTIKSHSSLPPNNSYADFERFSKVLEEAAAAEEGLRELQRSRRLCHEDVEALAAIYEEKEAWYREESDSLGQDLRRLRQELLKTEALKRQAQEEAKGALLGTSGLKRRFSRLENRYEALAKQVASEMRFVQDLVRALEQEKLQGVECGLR

| Compound | Activity [1] [%] | Activity [2] [%] | Activity [3] [%] | Activity [4] [%] | Activity [5] [%] | Activity [6] [%] | Activity [7] [%] | Activity [8] [%] | Activity [9] [%] |
| --- | --- | --- | --- | --- | --- | --- | --- | --- | --- |
| CC[C@H](Nc1ncnc2[nH]cnc12)c1nc2cccc(F)c2c(=O)n1-c1ccccc1 | 99.5 | 105 | 92.8 | 100 | 87.3 | 98.7 | 94 | 120 | 99.3 |
| C[C@H](Nc1ncnc2nc[nH]c12)c1cc2cccc(Cl)c2c(=O)n1-c1ccccc1 | 97.2 | 101 | 90.7 | 103 | 90 | 99.4 | 98.2 | 116 | 107 |
| CC(C)Oc1ccc(-c2nn([C@@H](C)c3oc4ccc(F)cc4c(=O)c3-c3cccc(F)c3)c3ncnc(N)c23)cc1F [UMBRALISIB] | 95.1 | 89.5 | 92.9 | 99.7 | 96.7 | 99 | 95.7 | 114 | 103 |
